In PMC8403975 (Bioorganic Chemistry, 2021):
≈ marks a conversion by molar mass, not a printed value. Where “and” joins values, the source holds several entries; their conditions need not be identical. Identical values can stand only once. Like-named read-outs stand apart in the source and are kept apart here.

What was measured:
[1] = molecular target: ACE2:SARS-CoV-2 Spike (RBD) (Homo sapiens, UniProt Q9BYF1); test: biochemical; type: binding
[2] = test system: voltage-dependent Ca2+ channels (isolated rat ileum); test: Calcium antagonism: relaxation of K+; settings: K+ (80 mM)-induced contractions of rat ileum; mean ± SD, three independent experiments
Male Wistar albino rats = type: in vivo, rat; settings: mean arterial BP compared to the control group
[3] = test system: PMA-differentiated THP-1 cells; test: PMA-differentiated THP-1 cell viability assay; type: cell-based; settings: Homo sapiens, THP-1, 24 h
[4] = test system: IL-6 production in LPS-stimulated THP-1 cells; test: IL-6 production by LPS-stimulated PMA-differentiated THP-1 cells; type: cell-based, human; settings: compared to LPS (positive control); for Reduction of IL-6 level: compound at 1/4 IC50, added 2 h prior to LPS 0.5 μg/mL, 24 h
[5] = test system: CRP production in LPS-stimulated THP-1 cells; test: CRP production by LPS-stimulated PMA-differentiated THP-1 cells; type: cell-based, human; settings: compared to LPS (positive control); for Effect on CRP level (in words): compound at 1/4 IC50, LPS 0.5 μg/mL

ACE2:SARS-CoV-2 Spike (RBD), sequence (Q9BYF1 18-740): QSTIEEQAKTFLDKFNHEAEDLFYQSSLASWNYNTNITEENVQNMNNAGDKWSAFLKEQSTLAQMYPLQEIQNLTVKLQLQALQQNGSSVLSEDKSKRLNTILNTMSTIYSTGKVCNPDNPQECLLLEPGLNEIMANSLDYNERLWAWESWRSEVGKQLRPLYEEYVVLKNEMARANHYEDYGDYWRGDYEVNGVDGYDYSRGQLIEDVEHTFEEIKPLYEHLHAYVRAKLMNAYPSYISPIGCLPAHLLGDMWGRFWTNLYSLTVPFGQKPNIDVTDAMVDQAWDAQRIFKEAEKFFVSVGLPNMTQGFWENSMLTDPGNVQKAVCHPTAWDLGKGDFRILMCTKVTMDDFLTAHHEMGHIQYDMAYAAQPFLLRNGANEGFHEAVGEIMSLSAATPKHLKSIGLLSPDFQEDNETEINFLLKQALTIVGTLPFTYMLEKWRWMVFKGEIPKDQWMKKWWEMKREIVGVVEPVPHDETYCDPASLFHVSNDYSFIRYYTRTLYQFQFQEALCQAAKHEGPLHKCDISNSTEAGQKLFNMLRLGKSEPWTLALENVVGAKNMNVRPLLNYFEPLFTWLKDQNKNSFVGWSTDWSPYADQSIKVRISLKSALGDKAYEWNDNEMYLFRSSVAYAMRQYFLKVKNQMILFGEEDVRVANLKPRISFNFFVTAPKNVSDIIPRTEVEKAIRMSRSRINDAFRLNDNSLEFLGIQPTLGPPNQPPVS

SMILES	IC50 [1]	IC50 [2] [µg/mL]	% reduction in BP (Male Wistar albino rats)	IC50 [3] [µg/mL]	IC50 ([3]; read-out: IC50 µM) [µM]	Reduction of IL-6 level [4]	Effect on CRP level (in words) [5]	Decrease in the level of CRP ([5]; compound at 1/4 IC50, added 2 h prior to LPS 0.5 μg/mL, 24 h)	Effect on IL-6 level (in words) ([4]; compound at 1/4 IC50, LPS 0.5 μg/mL)
CCOC(=O)C1=C(C)NC(=S)NC1c1ccccc1Br (stereo not shown) [Compound 4c, Ethyl-4-(2-bromophenyl)-6-methyl-2-thioxo-1,2,3,4-tetrahydropyrimidine-5-carboxylate]	23 ± 1 nM	23.62 ± 2.33 (≈ 66.5 µM)	about 21%						
CCOC(=O)C1=C(C)NC(=S)NC1c1ccccc1C#N (stereo not shown) [Compound 4a, Ethyl-4-(2-cyanophenyl)-6-methyl-2-thioxo-1,2,3,4-tetrahydropyrimidine-5-carboxylate]	8.5 ± 0.92 nM	23.07 ± 1.53 (≈ 76.6 µM)		1550 ± 134	533				
CC1=C(C(=O)Nc2ccc(C)cc2)C(c2ccccc2C#N)NC(=S)N1 (stereo not shown) [Compound 7b, 4-(2-cyanophenyl)-6-methyl-N-(4-methylphenyl)-2-thioxo-1,2,3,4-tetrahydropyrimidine-5-carboxamide]	10.8 ± 0.75 nM	22.81 ± 2.46 (≈ 62.9 µM)		222 ± 10.1	61	47%	moderate decrease		
CC1=C(C(=O)Nc2ccccc2)C(c2ccccc2Cl)NC(=S)N1 (stereo not shown) [Compound 8a, 4-(2-chlorophenyl)-6-methyl-N-phenyl-2-thioxo-1,2,3,4-tetrahydropyrimidine-5-carboxamide]	10.6 ± 0.61 nM	20.23 ± 1.79 (≈ 56.5 µM)	up to 29%	464 ± 29.7	125				
CCOC(=O)C1=C(C)NC(=S)NC1c1ccccc1Cl (stereo not shown) [Compound 4b, Ethyl-4-(2-chlorophenyl)-6-methyl-2-thioxo-1,2,3,4-tetrahydropyrimidine-5-carboxylate]	~12.5 nM and 12.5 nM	24.69 ± 2.35 (≈ 79.4 µM)		698 ± 65.6	231				
CC1=C(C(=O)Cl)C(c2ccccc2Cl)NC(=S)N1 (stereo not shown) [Compound 6b, 6-Methyl-4-(2-chlorophenyl)-2-thioxo-1,2,3,4-tetrahydropyrimidine-5-carbonyl chloride]	23.7 ± 1.35 nM	30.78 ± 2.52							
CC1=C(C(=O)O)C(c2ccccc2Cl)NC(=S)N1 (stereo not shown) [Compound 5b, 4-(2-chlorophenyl)-6-Methyl-2-thioxo-1,2,3,4-tetrahydropyrimidine-5-carboxylic acid]	~12.5 nM and 12.5 nM	25.25 ± 1.39 (≈ 89.3 µM)		967 ± 79.2	342				
CC1=C(C(=O)Nc2ccc(C)cc2)C(c2ccccc2Cl)NC(=S)N1 (stereo not shown) [Compound 8b, 4-(2-chlorophenyl)-6-methyl-N-(4-methylphenyl)-2-thioxo-1,2,3,4-tetrahydropyrimidine-5-carboxamide]	19.2 ± 1.11 nM	22.91 ± 2.59 (≈ 61.6 µM)							
CC1=C(C(=O)Nc2ccccc2)C(c2ccccc2Br)NC(=S)N1 (stereo not shown) [Compound 9a, 4-(2-bromophenyl)-6-methyl-N-phenyl-2-thioxo-1,2,3,4-tetrahydropyrimidine-5-carboxamide]	13.7 ± 1.37 nM	21.45 ± 2.55 (≈ 53.3 µM)	27%	484.9 ± 3.24	116	~79%		about 95%	
CC1=C(C(=O)Cl)C(c2ccccc2C#N)NC(=S)N1 (stereo not shown) [Compound 6a, 6-Methyl-4-(2-cyanophenyl)-2-thioxo-1,2,3,4-tetrahydropyrimidine-5-carbonyl chloride]	17.5 ± 1.31 nM	26.84 ± 1.51							
CC1=C(C(=O)Nc2ccccc2)C(c2ccccc2C#N)NC(=S)N1 (stereo not shown) [Compound 7a, 4-(2-cyanophenyl)-6-methyl-N-phenyl-2-thioxo-1,2,3,4-tetrahydropyrimidine-5-carboxamide]	11.6 ± 0.94 nM	19.65 ± 1.60 (≈ 56.4 µM)	up to 29%	434 ± 32.9	123				lowest effect
CC1=C(C(=O)O)C(c2ccccc2C#N)NC(=S)N1 (stereo not shown) [Compound 5a, 4-(2-cyanophenyl)-6-methyl-2-thioxo-1,2,3,4-tetrahydropyrimidine-5-carboxylic acid]	9.8 ± 1.06 nM	24.37 ± 1.45 (≈ 89.2 µM)		496 ± 38.7	118	about 56%	moderate decrease		
CC1=C(C(=O)Nc2ccc(F)cc2)C(c2ccccc2C#N)NC(=S)N1 (stereo not shown) [Compound 7c, 4-(2-cyanophenyl)-6-methyl-N-(4–fluorophenyl)-2-thioxo-1,2,3,4-tetrahydropyrimidine-5-carboxamide]	20.1 ± 1.1 nM	22.85 ± 1.11 (≈ 62.4 µM)							
CC1=C(C(=O)Cl)C(c2ccccc2Br)NC(=S)N1 (stereo not shown) [Compound 6c, 6-Methyl-4-(2-bromophenyl)-2-thioxo-1,2,3,4-tetrahydropyrimidine-5-carbonyl chloride]	16.5 ± 1.08 nM	29.73 ± 2.44							
